Results from US12570694B2, “Peptides and pharmaceutical, nutraceutical or veterinary compositions for hair loss prevention and/or treatment” (VYTRUS BIOTECH, S.L., priority 2016, dated 2026).

Experiments:
[1] = system: human hair follicle papilla cells (HFDPC); test: In vitro proliferation of hair follicle dermal papilla cells (BrdU incorporation); format: cell-based
Protocol: In order to test the effects of the cell-free supernatants, as well as of the peptides of the invention, a proliferation assay was conducted onto human hair follicle papilla cells (CELL APPLICATIONS, INC; Normal human hair follicles from temporal scalp. Single donor: Ref. 602-05a. Lot. 2092.).
The culture media was a Papilla Cell Basal Medium supplemented with the Growth Supplements kit (Relative composition: Fetal bovine serum, growth factors and antibiotics. Application: 6% v/v).
HFDPC proliferation was assessed determining the proliferation index (%). Cell DNA replication was quantified by means of incorporated bromodeoxiuridine (BrdU) into DNA of treated cells. BrdU assay allows measuring cell proliferation based on cell capability of incorporating BrdU during S-phase of the cell cycle. Cells being divided incorporated BrdU that is further detected by means of antibodies and immunocytochemistry detection.
Cells were seeded at confluence in a 96-well plate. After stabilization and synchronization of cell cultures the tested products were added (at the final concentration indicated in Table 1 of Examples. After that, BrdU was added to cultures and HFDPC were incubated at 37° C. until complete BrdU incorporation. BrdU amounts were proportional to the number of cell divisions and thus to the growth of the treated culture.
Data are depicted in FIG. 1, FIG. 2 and FIG. 3, wherein it is shown the proliferation index (%) of HFDPC, calculated as the percentage of growing in relation to the basal control (non-treated HFDPC) which is accorded a 100% value of proliferation index.

[2] = system: insulin growth factor 1 (IGF-1); test: IGF-1 levels in secretomas of treated HFDPC; format: cell-based, human; conditions: 24 h and 48 h after treatment, data not shown
Protocol: Secretomas (supernatants that could be recovered from the HFDPC cultures challenged with the tested materials of Table 1) were analysed for detecting the presence and levels of animal cell growth factors and of microRNAs associated with hair growth in dermal papilla. […] Similar results (at 24 and 48 h) were observed when analysing the levels of fibroblast growth factor 7 (FGF-7). Both growth factors are associated with the promotion of hair growth.

miRNA-31 = miRNA-31 expression in secretomes of treated HFDPC; format: cell-based, human; conditions: in relation to the controls, FIG. 5(A),(C)
From the text: FIG. 5, related with Assay 1, is a graph showing the expression levels of miRNA-22 (FIG. 5(B)) and miRNA-31 (FIGS. 5(A) and (C)) in secretomas from HFDPC treated with either the peptide of SEQ ID NO: 6 or the cell-free supernatants of Curcuma longa.
From these secretomes of HFDPC, also the levels of the microRNAs miRNA-31 and miRNA-22 were detected (FIG. 5).

[3] = system: human dermal fibroblasts (HDF); test: In vitro proliferation of human dermal fibroblasts (BrdU incorporation); format: cell-based; conditions: basal control = 100%
Protocol: In order to further test the effects of the peptides of the invention in an additional setting, a proliferation assay was conducted onto human dermal fibroblasts (HDF).
Normal Human Dermal Fibroblasts (HDF) were obtained from foreskin samples, surpluses from surgery of young donors (0-3 years old) and stablished by using the standard method of explants growth and enzymic dissociation of proliferating cells. Cells were propagated and grown in Growth Medium (GM): Dulbecco's 1 g/L glucose medium, supplemented with 10% foetal bovine serum (FBS, PAA); 2 mM L-glutamine (Lonza); and antibiotics (100 μg/ml Penicillin and 100 U/ml of Streptomycin, Lonza). For routine subcultivation and propagation of the primary culture, cells were washed twice with PBS ([…] buffered saline, pH 7.4), harvested with trypsin—EDTA (Gibco) and counted in Neubauer chamber before its seeding in a new cell culture flask (Falcon, 75 cm2).
Test products were prepared at the defined final concentrations by its dilution in Maintenance Medium (Dulbecco's 1 g/L glucose medium, supplemented with 1% foetal bovine serum (FBS, PAA); 2 mM L-glutamine (Lonza); and antibiotics (100 μg/ml Penicillin and 100 U/ml of Streptomycin, Lonza), just before each application.
HFD proliferation was assessed determining the proliferation index (%). Cell DNA replication was quantified by means of incorporated bromodeoxiuridine (BrdU) into DNA of treated cells. […] Cells being divided incorporated BrdU that is further detected by means of antibodies and immunocytochemistry detection. […]
Data are depicted in FIG. 6 and FIG. 7, wherein it is shown the proliferation index (%) of HDF, calculated as the percentage of growing in relation to the basal control (non-treated HDF) which is accorded a 100% value of proliferation index. […]
Data are depicted in FIG. 16, wherein it is shown the proliferation index (%) of HDF, calculated as the percentage of growing in relation to the basal control (non-treated HDF) which is accorded a 100% value of proliferation index.

CH3—C(O)—YIYT-NH2 (Ac-YIYT-NH2) [SEQ ID NO: 6, in vivo: dissolved 0.025% w/w in PBS buffered fortifying solution 2×]
proliferation index of HFDPC ([1]; FIG. 1, relative to basal control (non-treated HFDPC) = 100%, concentrations C1/C2 of Table 1): showed the best results
proliferation index of HFDPC ([1]; FIGS. 2 and 3, peptides with or without end-terminal modifications at 5.86, 2.93, 1.46 μg/ml, basal control = 100%): can promote cell proliferation
levels of insulin growth factor 1 (IGF-1) [2]: higher levels were meaningful
expression index of miRNA-31 (miRNA-31): increase of the expression index of miRNA-31
proliferation index of HDF ([3]; Assay 5, FIG. 16, peptide, nutritive solution, or both in combination): can promote cell proliferation
proliferation index of HDF ([3]; FIGS. 6 and 7, 4Aa at 25, 12.5, 1.25 μg/ml, 5Aa at 1.25, 0.63, 0.25 μg/ml): can promote cell proliferation of HDF
